Results: ChEMBL document CHEMBL1147334, “Starfish saponins, part 49. New cytotoxic steroidal glycosides from the starfish Fromia monilis” (J Nat Prod, 1993)

System: Vero
Assay: Cytotoxicity against african green monkey Vero cells after 24 hrs measured per 5x10^5 cells by neutral red uptake assay
Type: cell-based
Conditions: chlorocebus sabaeus

| Structure (SMILES) | Activity [µg] |
| --- | --- |
| CO[C@@H]1[C@@H](O)[C@H](O[C@@H]2CO[C@@H](O[C@@H]3CO[C@@H](OCC[C@@H](/C=C/[C@@H](C)[C@H]4[C@@H](O)[C@@H](O)[C@@H]5[C@]4(C)CC[C@@H]4[C@@]6(C)CC[C@H](O)[C@H](O)[C@@H]6[C@@H](O)C[C@]45O)C(C)C)[C@H](O)[C@H]3O)[C@H](O)[C@H]2OC)OC[C@H]1O | 10 |
| CO[C@H]1[C@H](O[C@H]2CC[C@]3(C)C4=CC[C@]5(C)[C@@H]([C@H](C)CC[C@H](O)C(C)C)C[C@@H](O)[C@H]5C4=CC[C@H]3C2)OC[C@@H](O)[C@@H]1O [MONILOSIDE A] | 3 |
| CO[C@H]1[C@H](O[C@H]2CC[C@]3(C)C4=CC[C@]5(C)[C@@H]([C@H](C)CC[C@H](O)C(C)C)C[C@@H](O)[C@H]5C4=CC[C@H]3[C@H]2O)OC[C@@H](O)[C@@H]1O [MONILOSIDE B] | 3 |
| CO[C@H]1[C@H](O[C@H]2CC[C@@]3(C)[C@H]([C@H]2O)[C@H](O)C[C@H]2[C@@H]4[C@H](O)C[C@H]([C@H](C)CC[C@H](O)C(C)C)[C@@]4(C)CC[C@@H]23)OC[C@@H](O)[C@@H]1O [MONILOSIDE C] | 3 |
| CO[C@H]1[C@H](O[C@H]2CC[C@@]3(C)[C@H]([C@H]2O)[C@H](O)C[C@]2(O)[C@@H]3CC[C@]3(C)[C@@H]([C@H](C)CC[C@H](O)C(C)C)C[C@@H](O)[C@H]32)OC[C@@H](O)[C@@H]1O [MONILOSIDE D] | 3 |
| CO[C@@H]1[C@@H](O)[C@H](OCC[C@@H](CC[C@@H](C)[C@H]2[C@@H](O)[C@@H](O)[C@@H]3[C@]2(C)CC[C@@H]2[C@@]4(C)CC[C@H](O)[C@H](O)[C@@H]4[C@@H](O)C[C@]23O)C(C)C)OC[C@H]1O[C@@H]1OC[C@H](O)[C@H](O)[C@H]1O [MONILOSIDE E] | 10 |
| CO[C@@H]1[C@@H](O)[C@H](OCC[C@@H](/C=C/[C@@H](C)[C@H]2[C@@H](O)[C@@H](O)[C@@H]3[C@]2(C)CC[C@@H]2[C@@]4(C)CC[C@H](O)[C@H](O)[C@@H]4[C@@H](O)C[C@]23O)C(C)C)OC[C@H]1O[C@@H]1OC[C@H](O)[C@H](O)[C@H]1O [MONILOSIDE F] | 10 |
| CO[C@@H]1[C@@H](O)[C@H](O[C@@H]2CO[C@@H](O[C@@H]3CO[C@@H](OCC[C@@H](CC[C@@H](C)[C@H]4[C@@H](O)[C@@H](O)[C@@H]5[C@]4(C)CC[C@@H]4[C@@]6(C)CC[C@H](O)[C@H](O)[C@@H]6[C@@H](O)C[C@]45O)C(C)C)[C@H](O)[C@H]3O)[C@H](O)[C@H]2OC)OC[C@H]1O [MONILOSIDE G] | 10 |
| CO[C@@H]1[C@@H](O)[C@H](O[C@@H]2CO[C@@H](O[C@@H]3CO[C@@H](OCC[C@@H](CC[C@@H](C)[C@H]4[C@@H](O)[C@@H](O)[C@@H]5[C@]4(C)CC[C@@H]4[C@@]6(C)CC[C@H](O)[C@H](O)[C@@H]6[C@@H](O)C[C@]45O)C(C)C)[C@H](O)[C@H]3O)[C@H](O)[C@H]2O)OC[C@H]1O [MONILOSIDE I] | 1 |
